{"source": "patent US20230136569A1", "about": "“USE OF NMN TO REDUCE IMMUNODEPRESSION AND IMMUNOSENESCENCE” (NUVAMID SA, priority 2020, published 2023)", "assay_type_in_all_cases": "in vivo", "key": {"[1]": {"system": "B cells present in the spleen", "assay": "Flow cytometry of B cells in the spleen of old mice", "settings": "500 mg/kg p.o., 6 weeks", "protocol": "(§1) The administering of β-NMN at 500 mg/kg, of α-NMN at 500 mg/kg and of the vehicle (water) was obtained via oral route (p.o) in the drinking water to young and old mice. The solutions were prepared by dissolving the powder of β-NMN or α-NMN in the vehicle (water). The study comprised 4 groups each having 6 mice: • Group 1: young mice (aged 10 weeks)+drinking water (vehicle) • Groupe 2: old mice (aged 15 months)+drinking water (vehicle) • Group 3: old mice (aged 15 months)+compound I-B (alpha-NMN) in the drinking water • Group 4: old mice (aged 15 months)+compound I-A (beta-NMN) in the drinking water The water consumption of the mice was assessed per cage every other day. The mice were weighed every week. The mice in Group 3 were sacrificed after 4 weeks for organ collection and characterisation of T cell function. The mice in Group 4 were sacrificed after 6 weeks for organ collection and characterisation of T cell function. On the day of sacrifice, the mice were anaesthetised with Vetoflurane (isoflurane) and blood samples were taken from the retroorbital sinus. The blood was incubated for 30 minutes at ambient temperature and then centrifuged at 1300 g for 10 minutes. After sacrificing of the mice, the spleen, thymus, and bone marrow of each animal were removed. The thymus was weighed and measured to evaluate involution thereof. For illustration purposes, photos of the thymus were taken on 5 animals per group. The thymus was divided into two parts: one part was treated with formol for histological examination. The second part was treated for characterisation of the immune cells. For characterisation of the cells, the thymus and spleen were crushed through a sieve of […] over a 50 mL tube with a syringe plunger. The bone marrow was rinsed with RPMI culture medium using a needle and syringe. The cell suspension was then centrifuged at 400 g for 5 minutes at 4° C. Lysis of the red blood cells was also performed before the cell count and use thereof for cytometry. The isolated cells of the spleen, thymus and bone marrow were marked with antibodies in accordance with the following tables to identify the proportion of effector and memory naive T and B cells. The following B cells of the spleen were also examined for characterisation as a function of the combination of proteins on the surface thereof: [table] Measured parameters: The results of flow cytometry are expressed in number or as a proportion of cells per organ. The weight of the thymus is expressed in grams."}, "[2]": {"system": "T cells present in the spleen", "assay": "Flow cytometry of CD4+ and CD8+ T cells in the spleen of old mice", "settings": "500 mg/kg p.o.; for number of CD4+ effector T cells: α-NMN 4 weeks, β-NMN 6 weeks, compared with Group 3 (so in the source)", "protocol": "as §1, with “following T” for “following B”"}, "[3]": {"system": "old mice (aged 15 months)", "assay": "Study of the effects on immunosenescence in old mice (overall conclusion)", "settings": "old mice (15 months), 500 mg/kg p.o. in drinking water; concluding statement", "protocol": "The administering of β-NMN at 500 mg/kg, of α-NMN at 500 mg/kg and of the vehicle (water) was obtained via oral route (p.o) in the drinking water to young and old mice. The solutions were prepared by dissolving the powder of β-NMN or α-NMN in the vehicle (water). The solution was used at ambient temperature for no more than 2 days and was freshly prepared for each new administration. The mice were weighed each week to adapt the dose of the compound to be administered. Throughout the entire phase, a standard food diet and tap water were provided ad libitum. The study comprised 4 groups each having 6 mice: • Group 1: young mice (aged 10 weeks)+drinking water (vehicle) • Groupe 2: old mice (aged 15 months)+drinking water (vehicle) • Group 3: old mice (aged 15 months)+compound I-B (alpha-NMN) in the drinking water • Group 4: old mice (aged 15 months)+compound I-A (beta-NMN) in the drinking water The water consumption of the mice was assessed per cage every other day. The mice were weighed every week. The mice in Group 3 were sacrificed after 4 weeks for organ collection and characterisation of T cell function. The mice in Group 4 were sacrificed after 6 weeks for organ collection and characterisation of T cell function. […] The thymus was weighed and measured to evaluate involution thereof. […]"}}, "data": [{"smiles": "NC(=O)c1ccc[n+]([C@@H]2O[C@H](COP(=O)([O-])O)[C@@H](O)[C@H]2O)c1", "note": "(stereo in doubt) [I-A, nicotinamide mononucleotide]", "values": [{"measurement": "number of activated B cells in the spleen", "setting": "[1]; compared with the other groups (FIG. 6B)", "value": "increase in the number of activated B cells"}, {"measurement": "number of memory B cells in the spleen", "setting": "[1]; compared with the other groups (FIG. 6C)", "value": "increase"}, {"measurement": "number of germinal B cells in the spleen", "setting": "[1]; compared with the other groups (FIG. 6D)", "value": "increase"}, {"measurement": "number of B cells in the spleen", "setting": "[1]; compared with the other groups of mice (FIG. 6A)", "value": "significantly increased"}, {"measurement": "number of CD4+ memory T cells in the spleen", "setting": "[2]; 6 weeks, compared with the other groups (FIG. 7B)", "value": "increase in the memory T cells that is significant"}, {"measurement": "total number of CD4+ T cells in the spleen", "setting": "[2]; 6 weeks, compared with the other groups of mice (FIG. 7A)", "value": "significantly increased"}, {"measurement": "number of CD4+ effector T cells", "setting": "[2]", "value": "increase in the number of CD4+ effector T cells"}, {"measurement": "signs of immunosenescence", "setting": "[3]", "value": "significant decrease in the signs of immunosenescence"}]}, {"smiles": "NC(=O)c1ccc[n+]([C@H]2O[C@H](COP(=O)([O-])O)[C@@H](O)[C@H]2O)c1", "note": "(stereo in doubt) [I-B, alpha nicotinamide mononucleotide]", "values": [{"measurement": "number of naive CD8+ T cells in the spleen", "setting": "[2]; 4 weeks (FIG. 8A)", "value": "does not modify the number of naive CD8+ T cells"}, {"measurement": "levels of effector CD8+ T cells in the spleen", "setting": "[2]; 4 weeks (FIG. 8B)", "value": "restoring of the levels of effector CD8+ T cells"}, {"measurement": "levels of memory CD8+ T cells in the spleen", "setting": "[2]; 4 weeks (FIG. 8C as printed)", "value": "restoring of the levels"}, {"measurement": "levels of effector memory CD8+ T cells in the spleen", "setting": "[2]; 4 weeks (FIG. 8D as printed)", "value": "restoring of the levels"}, {"measurement": "number of CD4+ effector T cells", "setting": "[2]", "value": "increase in the number of CD4+ effector T cells"}, {"measurement": "signs of immunosenescence", "setting": "[3]", "value": "significant decrease in the signs of immunosenescence"}]}]}
